For assay [1], the system named is NRAS mutant melanoma cells. Nature of the assay: Reactive oxygen species by flow cytometry (H2DCFDA, MitoSox Red). The assay is classed as cell-based, Human. As to conditions: 1 μM 6-thio-dG for 7 days. How it is done: FIGS. 2a to 2c show NRAS^mut melanoma cells (FIG. 2a), BRAF-V600E/NRAS mutant cells derived from melanoma patients resistant to BRAF/MEK inhibitors (FIG. 2b), or non-transformed melanocytes and fibroblasts (FIG. 2c) were treated with 6-thio-dG for 7 days. Cell viability was measured by Alamar Blue assay and calculated relative to DMSO-treated cells. […] Cell death was assessed by PSVUe staining. Percent of apoptotic cells is shown. […] Mean TRF length expressed as kilobase pairs is indicated at the bottom. […] FIG. 2g provides a bar graph showing that DNA damage was assessed by γH2AX staining. […] Tumor volume was measured and average tumor volume (n=4) ±SEM was plotted vs. time.
FIGS. 3a to 3g provides graphs showing that telomere dysfunction enhances oxidative stress leading to upregulation of an antioxidant program. […] Mitochondrial superoxide production was measured by MitoSox Red fluorescence (FIGS. 3c, and 3d) and expressed as fluorescence relative to vector or DMSO controls. […] Transduced M93-047 cells were treated with DMSO or 1 μM of 6-thio-dG and cell death was assessed by Annexin V/PI straining. […] Transduced cells were treated with increasing doses (1, 2.5 and 5 μM) of 6-thio-dG for 7 days and cell death was assessed. […]
General or mitochondrial specific ROS were measured by flow cytometry H2DCFDA or MitoSoxRed (Invitrogen, Waltham, Mass.) following manufacturer's specifications.
A general note: Flow cytometry measures light scatter and fluorescence of single cells or particles in a stream.

Assay [2] deals with NRAS mutant melanoma cells. Nature of the assay: Cell viability, Alamar Blue assay. The assay is classed as cell-based, Human. The protocol:
FIGS. 2a to 2c show NRAS^mut melanoma cells (FIG. 2a), BRAF-V600E/NRAS mutant cells derived from melanoma patients resistant to BRAF/MEK inhibitors (FIG. 2b), or non-transformed melanocytes and fibroblasts (FIG. 2c) were treated with 6-thio-dG for 7 days. Cell viability was measured by Alamar Blue assay and calculated relative to DMSO-treated cells. […] Cell death was assessed by PSVUe staining. Percent of apoptotic cells is shown. […] Mean TRF length expressed as kilobase pairs is indicated at the bottom. […] FIG. 2g provides a bar graph showing that DNA damage was assessed by γH2AX staining. Data represent average from three independent experiments ±SEM. *p<0.05; **p<0.01; ***p<0.005 in unpaired Student's t-test. […] Tumor volume was measured and average tumor volume (n=4) ±SEM was plotted vs. time.
Cells were seeded in 96-well plates and treated with drugs. After 6 days, cell viability was assessed following 6h incubation with […] Alamar Blue (ThermoFisherScientific, Philadelphia, Pa.) by measuring fluorescence using an EnVision Xcite Multilabel plate reader (Perkin Elmer, Waltham, Mass.). Cell death was determined by flow cytometry using PSVue-643 (Molecular Targeting Technologies) or Annexin V (640919, Biolegend, San Diego, Calif.) and Propidium Iodide (Sigma) staining. Samples were analyzed using a BD LSRII flow cytometer (BD Biosciences, San Jose, Calif.).
A general note: Alamar Blue is a resazurin reagent that responds to reducing activity.

As to `Nc1nc2c(ncn2[C@H]2C[C@H](O)[C@@H](CO)O2)c(=S)[nH]1` [6-thio-dG, 6-thio-2′-deoxyguanosine], in assay [1], the “ROS levels (H2DCFDA)” value is reported as “increased levels” and the “mitochondrial ROS levels (MitoSox Red)” value is recorded as “increased mitochondrial ROS levels”. For the same compound, the cell viability result in assay [2] (6-thio-dG for 7 days, relative to DMSO) is recorded as “impaired the viability”. For the same compound, the cell viability entry in assay [2] (cells driven by secondary mutations in NRAS from patients with acquired resistance to BRAF and MEK inhibitors, 7 days) is on record as “impaired the viability”.
